Experimental findings from patent US20230373934A1, “ANDROGEN RECEPTOR MODULATORS AND METHODS FOR THEIR USE” (ESSA Pharma, Inc., priority 2022, published 2023) are described below.

Series [1] is described as follows: Microsomal stability assay, liver microsome half-life (mouse). Particulars: pH 7.4; mouse liver microsomes 0.5 mg/mL + NADPH, 1 μM compound, 37° C; read-out: Liver microsome + NADPH T½ (min) Mouse. In kind it is in vitro ADME. The source says:
(§1) Microsomal Stability Assay: Microsomal stability assay is a widely used in vitro model to characterize the metabolic conversion by phase I enzymes, such as cytochrome P450 (CYP) enzymes. Since metabolism is known to be highly variable in different species, microsomal stability assay is commonly run in multiple species. Metabolic stability of testing compound can be evaluated using human, rat, mouse, or other animal liver or intestine microsomes to predict intrinsic clearance.
(§2) The assay was carried out in 96-well microtiter plates at 37° C. Reaction mixtures (25 μL) contained a final concentration of 1 μM test compound, 0.5 mg/mL liver microsomes protein, and 1 mM NADPH and/or 1 mM UDPGA (with alamethicin) in 100 mM potassium phosphate, pH 7.4 buffer with 3 mM MgCl2. The incubation was done with N=1, but duplicate incubation at each time point can be prepared if necessary. At each of the time points (for example, 0, 15, 30, and 60 minutes), 150 μL of quench solution (100% acetonitrile with 0.1% formic acid) with internal standard was transferred to each well. Besides the zero minute controls, mixtures containing the same components except the NADPH can also be prepared as the negative control. Verapamil was included as a positive control to verify assay performance. Plates were sealed, vortexed, and centrifuged at 4° C. for 15 minutes at 4000 rpm. The supernatant is transferred to fresh plates for LC/MS/MS analysis.
(§3) Summarized conditions: [Compound]=1 μM, [LM]=0.5 mg/mL, [NADPH]=1 mM and/or [UDPGA]=1 mM, Buffer=100 mM Potassium Phosphate, pH 7.4 with 3 mM MgCl2, Time=0, 15, 30, and 60 min, and Temperature=37° C.
(§4) All samples were analyzed on LC/MS/MS using an AB Sciex API 4000 instrument, coupled to a Shimadzu LC-20AD LC Pump system. Analytical samples were separated using a Waters Atlantis T3 dC18 reverse phase HPLC column (20 mm×2.1 mm) at a flow rate of 0.5 mL/min. The mobile phase consisted of 0.1% formic acid in water (solvent A) and 0.1% formic acid in 100% acetonitrile (solvent B).
(§5) The extent of metabolism is calculated as the disappearance of the test compound, compared to the 0-min time incubation. Initial rates are calculated for the compound concentration and used to determine half-life (t1/2).

Series [2] addresses T1, androgen receptor (AR) (Homo sapiens, UniProt P10275, T878A).
T1 construct: endogenous in cells; host or cells: LNCaP
T1 sequence (P10275 1-920 T878A): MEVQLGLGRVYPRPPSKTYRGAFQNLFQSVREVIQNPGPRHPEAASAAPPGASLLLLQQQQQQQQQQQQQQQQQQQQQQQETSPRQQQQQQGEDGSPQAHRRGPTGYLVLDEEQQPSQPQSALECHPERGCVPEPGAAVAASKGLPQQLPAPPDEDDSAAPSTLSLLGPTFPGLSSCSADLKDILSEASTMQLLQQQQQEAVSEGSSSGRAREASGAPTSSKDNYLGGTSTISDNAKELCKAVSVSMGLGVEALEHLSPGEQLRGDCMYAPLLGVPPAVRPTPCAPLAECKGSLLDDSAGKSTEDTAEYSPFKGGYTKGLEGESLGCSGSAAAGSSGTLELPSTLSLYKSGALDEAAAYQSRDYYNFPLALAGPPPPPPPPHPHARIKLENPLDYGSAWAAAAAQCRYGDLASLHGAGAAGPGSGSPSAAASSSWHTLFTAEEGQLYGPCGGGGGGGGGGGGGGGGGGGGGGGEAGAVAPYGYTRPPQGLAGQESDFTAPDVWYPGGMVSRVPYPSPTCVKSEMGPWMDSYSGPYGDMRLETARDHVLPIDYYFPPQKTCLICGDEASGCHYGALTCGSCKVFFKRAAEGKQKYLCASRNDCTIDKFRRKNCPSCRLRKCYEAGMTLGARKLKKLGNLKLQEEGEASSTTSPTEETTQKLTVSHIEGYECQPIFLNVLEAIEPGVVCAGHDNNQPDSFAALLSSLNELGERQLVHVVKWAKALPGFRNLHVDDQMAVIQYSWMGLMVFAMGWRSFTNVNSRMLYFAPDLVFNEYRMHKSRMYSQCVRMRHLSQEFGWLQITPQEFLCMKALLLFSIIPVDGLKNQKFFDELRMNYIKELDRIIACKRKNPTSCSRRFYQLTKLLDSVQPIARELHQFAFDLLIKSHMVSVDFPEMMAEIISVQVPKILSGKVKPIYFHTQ
In words: Androgen-induced PSA-luciferase assay, Luciferase Assay A (LNCaP transiently transfected with PSA (6.1 kb)-luciferase reporter). It counts as cell-based. Particulars: LNCaP cells, 1 h pretreatment, R1881 (1 nM) 24 h, read-out: PSA-Luc IC50 Range. An outline of the steps:
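LNCaP cells transfected 24 h with PSA (6.1 kb)-luciferase reporter, pretreated 1 h with compound, then stimulated 24 h with R1881 (1 nM). Firefly luminescence in lysates normalized to protein content; IC50 from activity relative to R1881-induced vehicle control.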

Series [3] is described as follows: Microsomal stability assay, liver microsome half-life (dog). It counts as in vitro ADME. To be noted: pH 7.4; dog liver microsomes 0.5 mg/mL + NADPH, 1 μM compound, 37° C; read-out: Liver microsome + NADPH T½ (min) Dog.
Text: as §1, §2, §3, §4, §5

Series [4] in a line: Microsomal stability assay, liver microsome half-life (human). Particulars: pH 7.4; human liver microsomes 0.5 mg/mL + NADPH, 1 μM compound, 37° C; read-out: Liver microsome + NADPH T½ (min) Human. It counts as in vitro ADME.
Text: as §1, §2, §3, §4, §5

Series [5] in a line: Microsomal stability assay, liver microsome half-life (monkey). It counts as in vitro ADME. To be noted: pH 7.4; monkey liver microsomes 0.5 mg/mL + NADPH, 1 μM compound, 37° C; read-out: Liver microsome + NADPH T½ (min) Monkey.
Text: as §1, §2, §3, §4, §5

Series [6] in a line: Microsomal stability assay, liver microsome half-life (rat). In kind it is in vitro ADME. Particulars: pH 7.4; rat liver microsomes 0.5 mg/mL + NADPH, 1 μM compound, 37° C; read-out: Liver microsome + NADPH T½ (min) Rat.
Text: as §1, §2, §3, §4, §5
For orientation: Liver microsomes are vesicles of endoplasmic reticulum, rich in cytochrome P450 enzymes.

The target of series [7] is T2, androgen receptor (AR) (Homo sapiens, UniProt P10275).
T2 sequence (P10275 1-920 T878A): T1 sequence (P10275 1-920 T878A)
In words: Androgen-induced PSA-luciferase assay, Luciferase Assay B (cells stably expressing ARR2PB or PSA-firefly luciferase reporter, 384-well). In kind it is cell-based. To be noted: Luciferase Assay B (Compounds A186-A219 and A221-A245); stable luciferase reporter cells, 1 h pretreatment, R1881 24 h, serum-free; read-out: PSA-Luc IC50 Range. As to the method:
Luciferase Assay B: Cells stably expressing probasin promoter (ARR2PB) or human prostate-specific antigen (PSA)-firefly luciferase reporter were plated in poly-D-lysine-coated 384-well plates. 48 h after plating, cells were pretreated with vehicle or compounds for 1 h before adding R1881 under serum-free and phenol red-free conditions and then further incubated for 24 h. R1881 was added only for LNCaP cells. Firefly luciferase activities were determined by EnVision plate reader (Perkinemer) using the Steady-Glo Luciferase Reporter Assay System (Promega). Values were normalized to protein content. GraphPad Prism graphing software was used to calculate IC50 values. Luciferase Assay B was run for Compounds A186-A219 and A221-A245 in Table 2.
Statistical analyses were performed using GraphPad Prism (Version 6.01 for Windows; La Jolla, CA, USA). Comparisons between treatment and control groups were compared using Two-Way ANOVA with post-hoc Dunnett's and Tukey's tests. Differences were considered statistically significant at P values less than 0.05.
On the technique in general: A reporter such as luciferase makes a cellular process visible.

Some results are limits rather than exact numbers.

As for `CS(=O)(=O)N[C@H]1C[C@H](n2cc(-c3ccc(N(CC(F)(F)F)c4cc(Cl)c(OCCCl)c(C#N)c4)cc3)cn2)C1` [Compound A84], the half-life at 1 μM is more than 120 min in series [1]; more than 120 min in series [3]; 101 min in series [4]; 100 min in series [5]; more than 120 min in series [6]. Further, the concentration for half-maximal inhibition (IC50) (in general, the concentration that inhibits the measured activity by half) at androgen receptor (AR) [2] was 500 to 2000 nM.

For the compound `CS(=O)(=O)NC1CN(c2cnc(-c3ccc(Oc4cc(Cl)c(OCCCl)c(C#N)c4)cc3)cn2)C1` [Compound A94], the half-life at 1 μM in series [1] was more than 120 min; in series [3], more than 120 min; in series [4] it was more than 120 min; in series [5], 117 min; in series [6] it was more than 120 min. On androgen receptor (AR) [2], the half-maximal inhibitory concentration (IC50) was in the range of 500 to 2000 nM.

As for `CS(=O)(=O)Nc1cnc2cc(-c3ccc(Oc4cc(Cl)c(OC5CC5)c(C#N)c4)cc3)ccc2n1` [Compound A97, N-(6-(4-(3-chloro-5-cyano-4-cyclopropoxyphenoxy)phenyl)quinoxalin-2-yl) methanesulfonamide], the half-life at 1 μM in series [1], in series [3], in series [4], in series [5] and in series [6] was more than 120 min each time. Further, on androgen receptor (AR) [2], the half-maximal inhibitory concentration (IC50) lay in the range of 500 to 2000 nM.

For the compound `CS(=O)(=O)Nc1cnc2cc(-c3ccc(Oc4cc(Cl)c(OCC(F)(F)F)c(C#N)c4)cc3)ccc2n1` [Compound A98], the half-life at 1 μM in series [1], in series [3], in series [4], in series [5] and in series [6] was more than 120 min throughout. Besides, the 50% inhibitory concentration (IC50) at androgen receptor (AR) [2] lay within 500 to 2000 nM.

`[2H]C([2H])([2H])N(c1ccc(-c2ccc3nc(NS(C)(=O)=O)cnc3c2)cc1)c1cc(Cl)c(OCCCl)c(C#N)c1` [Compound A145]: the half-life at 1 μM in series [1], in series [3], in series [4], in series [5] and in series [6] was more than 120 min each time. In addition, the IC50 at androgen receptor (AR) [2] fell in the range of 500 to 2000 nM.

Take `CS(=O)(=O)Nc1nc2ccc(-c3ccc(Oc4cc(Cl)c(OCCCl)c(C#N)c4)cc3)cc2cc1F` [Compound A157]: the half-life at 1 μM in series [1], in series [3], in series [4], in series [5] and in series [6] was more than 120 min each time. Moreover, the IC50 at androgen receptor (AR) [2] was 500 to 2000 nM.

Consider `COc1c(Cl)cc(N(c2ccc(-c3ccc4nc(NS(C)(=O)=O)cnc4c3)cc2)C2CC2)cc1C#N` [Compound A163], for which the half-life at 1 μM in series [1], in series [3], in series [4], in series [5] and in series [6] was more than 120 min each time. In addition, the half-maximal inhibitory concentration (IC50) at androgen receptor (AR) [2] was less than 500 nM.

Turning to `CN(c1ccc(-c2ccc3nc(NS(C)(=O)=O)cnc3c2)cc1)c1cc(Cl)c(OC2CC2)c(C#N)c1` [Compound A164, N-(6-(4-((3-chloro-5-cyano-4-cyclopropoxyphenyl)(methyl)amino)phenyl)quinoxalin-2-yl)methanesulfonamide], the half-life at 1 μM in series [1], in series [3], in series [4], in series [5] and in series [6] was more than 120 min throughout. Also, the IC50 at androgen receptor (AR) [2] fell in the range of 500 to 2000 nM.

With `CS(=O)(=O)Nc1cnc2cc(-c3ccc(N(c4cc(Cl)c(OC5CC5)c(C#N)c4)C4CC4)cc3)ccc2n1` [Compound A177], the half-life at 1 μM in series [1], in series [3], in series [4], in series [5] and in series [6] was more than 120 min throughout. Besides, on androgen receptor (AR) [2], the concentration for half-maximal inhibition (IC50) is 500 to 2000 nM.

Regarding `CS(=O)(=O)Nc1cnc2cc(-c3ccc(N(CC(F)(F)F)c4cc(Cl)c(OC5CC5)c(C#N)c4)cc3)ccc2n1` [Compound A186, N-(6-(4-((3-chloro-5-cyano-4-cyclopropoxyphenyl) (2,2,2-trifluoroethyl)amino)phenyl)quinoxalin-2-yl)methanesulfonamide], the half-life at 1 μM in series [1], in series [3], in series [4], in series [5] and in series [6] was more than 120 min each time. Moreover, the IC50 at androgen receptor (AR) [7] was less than 500 nM.

Take `[2H]C([2H])([2H])N(c1ccc(-c2ccc3nc(NS(C)(=O)=O)cnc3c2)cc1)c1cc(Cl)c(OC2CC2)c(C#N)c1` [Compound A187]: the half-life at 1 μM in series [1], in series [3], in series [4], in series [5] and in series [6] was more than 120 min each time. Besides, on androgen receptor (AR) [7], the IC50 is 500 to 2000 nM.

As to `CS(=O)(=O)Nc1cnc2cc(-c3ccc(Oc4cc(C#N)c(OC5CC5)c(C(F)(F)F)c4)cc3)ccc2n1` [Compound A190], the half-life at 1 μM in series [1], in series [3], in series [4], in series [5] and in series [6] was more than 120 min throughout. The IC50 at androgen receptor (AR) [7] lay in the range of 500 to 2000 nM.
